By IC50 is commonly meant the concentration needed to halve the response being measured. Higher therefore signals weaker potency in that assay. One may read the AUC(0-inf) as total exposure, with the tail of the curve extrapolated. A word on the half-life: it is how long it takes for the measured level to halve. A higher half-life goes with slow loss. The Cmax is the peak of the concentration-time curve.

The structures appear in SMILES notation.

From US12441706B2, “Protein degradation agent compound preparation method and application” (SHANGHAI JEMINCARE PHARMACEUTICALS CO., LTD., priority 2019, dated 2025) come the findings set out here.

One data set deals with VCap cells. Kind of data set: Inhibition of proliferation of VCap cells (Cell Titer Glo, 6 days). Type of data set: cell-based. The following applies: Homo sapiens, VCaP, 144 h. On the procedure: Tumor cell line VCap FGC (ATCC catalog number CRL-2876) was cultured in DMEM (Gibco catalog number 11965-092) medium containing 10% FBS (Gibco catalog number 10099-141C), respectively. During the determination, Vcap cells were replaced with DMEM medium containing 5% FBS and 0.1 nM R1881 (Sigma catalog number R0908).
Vcap FGC cells were inoculated in a 384-well plate (Perkin Elmer catalog number 6007460) at a cell density of 1200 cells/well in a volume of 20 μL/well and incubated overnight in a carbon dioxide incubator (Thermo). The prepared compound solutions of different concentrations were added in a volume of 5 μL/well. The corresponding vehicle control was set at the same time. After being cultured in the incubator for 6 days, the cell plate and the contents were equilibrated to room temperature, and 25 μL of Cell Titer Glor (Promega catalog number G7573) was added to each well, shake and mix well, incubated in dark for 10-30 minutes, and the signal values were detected though Envision microplate reader (PerkinElmer).
The percentage inhibition rate of compound-treated wells was calculated from vehicle control wells on the plate, and the percentage inhibition rate data corresponding to different concentrations were fitted by GraphPad prism, and the IC50 values were calculated by 4-parameter nonlinear logic formula.

Data set [1] is described as follows: In vivo pharmacokinetics in mice, intravenous injection and oral administration. Set-up: species or system mouse. The settings on record: male CD1 mice. As to the method:
In this experimental example, in vivo pharmacokinetics in mice were evaluated by intravenous injection and oral administration.
Experimental methods and conditions: Male CD1 mice, aged 6-8 weeks, all animals were free access to food and water, and were given a single dose of the compound to be tested at 1 mg/Kg by intravenous injection (solvent 5% DMSO/15% Solutol/80% Saline), at 5 min, 15 min, 30 min, 1 hr, 2 hr, 4 hr, 8 hr, 24 hr, 48 h after drug administration, or oral gavage administration of 10 mg/kg (solvent 5% DMSO/10% Solutol/85% Saline), at 15 min, 30 min, 1 hr, 2 hr, 4 hr, 6 h, 8 hr, 24 hr, 48 h after administration, blood was collected from the orbit, no less than 50 μL for each sample, heparin sodium was used for anticoagulation, and then placed on ice after collection, and centrifuged within 1 hour to separate the plasma for testing. The plasma concentration of the drug was detected by liquid tandem mass spectrometry (LC/MS/MS), and the pharmacokinetic parameters were calculated by Phoenix WinNonlin software.

For data set [2], the system named is human prostate cancer VCaP cell subcutaneous xenograft tumor. Kind of data set: In vivo pharmacodynamic study, human prostate cancer VCaP cell subcutaneous xenograft tumor CB17 SCID mouse model. The following applies: for tumor growth inhibition rate (TGI): castrated CB17 SCID mice, 24th day after administration. As to the method:
Experimental animal: male mice of CB17 SCID strain, aged 6-8 weeks, weighing 18-22 grams, supplier: Beijing Weitong Lihua Laboratory Animal Technology Co., Ltd. Shanghai Branch, animal certificate number: 20170011005577. Animals were reared in the experimental environment for 7 days after arrival and the experiment was started.
Experimental method: Human prostate cancer cell VCaP cells (ATCC-CRL-2876) were cultured in vitro in monolayer, and the culture conditions were DMEM medium with 20% fetal bovine serum, 100 U/mL penicillin and 100 μg/mL streptomycin, cultured in a 5% CO2 incubator at 37° C. Conventional digestion with trypsin-EDTA was performed twice a week for passage. When the cell saturation was 80%-90% and the number reached the requirement, the cells were collected, counted, and inoculated. 0.2 mL (10× 10^6 cells+Matrigel) VCaP cells were subcutaneously inoculated into the left upper limb of each mouse, and castration was performed 33 days after cell inoculation. When the average tumor volume reached 119 mm^3, the drugs were administered in groups, and the doses of compound 14 were set to four groups: 1 mg/kg, 3 mg/kg, 10 mg/kg and 30 mg/kg.
Daily observation of experimental animals: the health status and death of animals were monitored every day. Routine examinations included observing the effects of tumor growth and drug treatment on the daily behavior of animals, such as behavioral activities, food and water intake (visual observation only), and weight changes (body weight measured three times a week), physical signs or other abnormal conditions.
Tumor measurements and experimental indicators: Experimental indicators were to examine whether tumor growth was inhibited, delayed or cured. Tumor diameters were measured with vernier calipers three times a week.
The calculation formula of tumor volume is: V=0.5a×b2, where a and b represented the long diameter and short diameter of the tumor, respectively. The antitumor effect of the compound was evaluated by TGI (%) or relative tumor proliferation rate T/C (%). TGI (%), reflecting the tumor growth inhibition rate. Calculation of TGI (%): TGI (%)=[1−(average tumor volume at the end of administration of a certain treatment group−average tumor volume at the beginning of administration of the treatment group)/(average tumor volume at the end of treatment in the vehicle control group−average tumor volume at the beginning of treatment in the vehicle control group)]×100%. Relative tumor proliferation rate T/C (%): the calculation formula is as follows: T/C %=TRTV/CRTV×100% (TRTV: RTV in the treatment group; CRTV: RTV in the negative control group). The relative tumor volume (RTV) was calculated according to the results of tumor measurement, and the formula is RTV=Vt/V0, where V0 is the average tumor volume measured at the time of group administration (i.e. d0), and Vt is the average tumor volume at a certain measurement, and TRTV and CRTV were taken on the same day. After the experiment, the tumor weight would be detected, and the percentage of T/Cweight would be calculated. Tweight and Cweight represent the tumor weight of the administration group and the vehicle control group, respectively.
Statistical analysis: Statistical analysis included the mean and standard error (SEM) of tumor volume at each time point for each group. […] T-test was used for comparison between two groups, and one-way ANOVA was used for comparison between three or more groups. […]

[3] abbreviates: mouse, intravenous administration 1 mg/kg, plasma.
Where [4] appears, read: mouse, oral administration 10 mg/kg, plasma.

In the data set on VCap cells, `CC1(C)C(=O)N(c2ccc(C#N)c(Cl)c2)c2ccc(-c3ccc(N4CC(CN5CCN(c6ccc7c(c6)C(=O)N(C6CCC(=O)NC6=O)C7=O)CC5)C4)nc3F)cc21` (stereo not drawn) [Compound 14] registered an Emax of 94% and an IC50 of 67 nM. This compound also gave a F in data set [1] (oral administration 10 mg/kg vs intravenous 1 mg/kg) of 68.6%. Besides, in data set [1] (setting [3]), the total exposure AUC(0-inf) is 10400 ng·h/mL, the clearance stood at 1.61 mL/min/kg and the half-life is 20.4 h. In data set [1] (setting [4]), this compound gave an AUC(0-inf) of 71100 ng·h/mL, a Cmax of 2650 ng/mL and a half-life of 17.8 h. The “tolerance (body weight, FIG. 2)” value in data set [2] (10 mpk and 30 mpk, CB17 SCID mice) is “better tolerance than Reference substance 1”. In data set [2] (dose 10 mpk), the “tumor growth inhibition rate (TGI)” value was found to be 96%. Besides, in data set [2] (dose 30 mpk), the “tumor growth inhibition rate (TGI)” value was determined as 96%.
